Experimental data from patent US9217007B2, “Platinum anticancer agents” (priority 2011, dated 2015).
Like-named read-outs stand apart in the source and are kept apart here.

Key:
[1] = system: Kelly neuroblastoma cell line; test: Toxicity against neuroblastoma cell line Kelly; type: cell-based
Method: (§1) Compounds SM-73 and SM-85 are assayed against an array of neuroblastoma cell lines.

[2] = system: NB1691 neuroblastoma cell line; test: Toxicity against neuroblastoma cell line NB1691; type: cell-based
Method: as §1

[3] = system: SKNSH neuroblastoma cell line; test: Toxicity against neuroblastoma cell line SKNSH; type: cell-based
Method: as §1

[4] = system: SKNMC neuroblastoma cell line; test: Toxicity against neuroblastoma cell line SKNMC; type: cell-based
Method: as §1

HEK-hNET = test: Toxicity toward HEK cells stably transfected with Norepinephrine Transporter; type: cell-based, human; settings: selectivity HEK-EV vs HEK-hNET
Method: The term “resistance factor” is a measure of selectivity conferred upon the platinum-based compound by the inclusion of ligands that promote recognition by NET.
(§2) After overnight incubation, the platinum compound with or without an OCT inhibitor (disopyramide) was then be added to the culture medium to various concentrations. After exposure to the drug for 7 hours, the drug-containing medium was replaced with fresh, drug-free medium and the incubation was continued for 72 hours.

[5] = system: HEK-MOCK (untransfected HEK293 cells); test: MTT cytotoxicity assay in untransfected HEK293 cells; type: cell-based, human; settings: 7 h drug exposure then 72 h drug-free
Method: (§3) Evaluation of compounds was carried out in an in-vitro cytotoxicity assay, involving a comparison between the effect of the platinum complex on human embryonic kidney cells (HEK293) transfected with human OCT1 (HEK-hOCT1) and OCT2 (HEK-hOCT2) versus those that are not transfected.
as §2
as §3, with “Evaluation of all three classes” for “Evaluation”

HEK-hOCT3 = test: MTT cytotoxicity assay in HEK293 stably transfected with human OCT3; type: cell-based
Text: HEK293 cell lines, stably expressing hOCT1, hOCT2 and hOCT3.

[6] = system: SHSY5Y neuroblastoma cell line; test: Toxicity against neuroblastoma cell line SHSY5Y; type: cell-based
Method: as §1

[7] = system: SHEP neuroblastoma cell line; test: Toxicity against neuroblastoma cell line SHEP; type: cell-based
Method: as §1

[8] = system: LANS neuroblastoma cell line; test: Toxicity against neuroblastoma cell line LANS; type: cell-based
Method: as §1

[9] = Rate of inactivation of platinums by glutathione; type: physicochemical; settings: platinum drug 100 μM; [GSH] 6.75 mM; [NaCl] 4.62; absorption at 260 nm
Method: Platinum-based compound as described herein at a 100 μM concentration was reacted with physiological concentration of GSH and the absorption at 260 nm was measured to monitor the progress of the reaction. Absorption as a function of time (0≦t≦1440 min) for platinum concentration of zero was subtracted from the absorption at each platinum concentration. Initial rates were calculated from the early time points as change in absorption over change in time.
One major pathway by which these platinum drugs get inactivated in vivo is by reaction with glutathione (GSH). We mimicked this reaction with GSH in vitro using physiological concentrations of GSH and salts. Increase in absorption at 260 nm over period of time was monitored for progress of the reaction and initial rates were calculated from the early time points in terms of the change in absorption over change in time.

[10] = system: HEK293 transfected with human OCT1 (HEK-hOCT1); test: MTT cytotoxicity assay in HEK293 stably transfected with human OCT1; settings: read-out: IC50 HEK-hOCT1; HEK293 stably transfected with human OCT1; MTT, 7 h exposure then 72 h
Method: as §3
(§4) HEK293 cell lines, stably expressing hOCT1, hOCT2 and hOCT3. The following colon cancer cell lines were also used: HCT116, RKO, DLD, HT29 and SW620 purchased from American Type Tissue Culture collection.
as §2
as §3, with “Evaluation of all three classes” for “Evaluation”

[11] = system: HEK293 transfected with human OCT2 (HEK-hOCT2); test: MTT cytotoxicity assay in HEK293 stably transfected with human OCT2; settings: read-out: IC50 HEK-hOCT2; HEK293 stably transfected with human OCT2; MTT, 7 h exposure then 72 h
Method: as §3, §4, §2
as §3, with “Evaluation of all three classes” for “Evaluation”

[12] = system: DLD colon cancer cell line; test: Cytotoxicity in colon cancer cell line DLD with and without cimetidine; type: cell-based
Method: (§5) Platinum uptake and platinum-DNA adduct formation was then measured in these transfected cell lines. In some cases, chemical inhibitors of OCT1 were used. In general, we used disopyramide (150 μM). […] In some cases, cimetidine (3 mM) was used as a general OCT inhibitor. Cytotoxicity of some of the leads was determined in colon cancer cell lines. Described below in some detail are the methods for these studies.
as §4, §2

[13] = system: HT29 colon cancer cell line; test: Cytotoxicity in colon cancer cell line HT29 with and without cimetidine; type: cell-based
Method: as §5, §4, §2

[14] = Toxicity evaluation of treated mice (CBC, kidney and liver function, ototoxicity); settings: mouse, in vivo
Method: An evaluation is being conducted in various body tissues/plasma to determine toxicity.
The SM-73 treated mice group was also evaluated for ototoxicity.

[15] = system: SW620 colon cancer cell line; test: Cytotoxicity in colon cancer cell line SW620 with and without cimetidine; type: cell-based
Method: as §5, §4, §2

neuroblastoma xenografts = test: Antitumor efficacy against neuroblastoma xenografts in mice; type: in vivo; settings: compared to cisplatin (FIG. 8)
[16] = system: HCT116 colon cancer cell line; test: Cytotoxicity in colon cancer cell line HCT116 with and without cimetidine; type: cell-based
Method: as §5, §4, §2

[17] = system: RKO colon cancer cell line; test: Cytotoxicity in colon cancer cell line RKO with and without cimetidine; type: cell-based
Method: as §5, §4, §2

NET-expressing HEK cells = test: Uptake of platinum compounds into NET-expressing HEK cells vs empty vector HEK cells; type: cell-based, human
Text: The success of our targeting strategy can be gauged in-vitro also through comparing the uptake of the platinum complex into cells. The actual effects of this increased uptake can in turn be ascertained and quantified through comparison of DNA-binding of the platinum complexes.
Accumulation was normalized to protein content.

DNA in HEK cells = test: DNA-binding of the platinum agents in HEK cells; type: cell-based, human; settings: compared to cisplatin
Method: After incubation, genomic DNA was isolated from the cell pellets using Wizard® Genomic DNA Purification Kit (Promega, Madison, Wis.) following the manufacturer's instructions. The genomic DNA was used for determination of platinum (ICP-MS) and DNA content (absorption spectrometry at 260 nm). Platinum-DNA adduct formation was expressed as amount of platinum per amount of DNA.

[18] = system: OCT1 (human, expressed in the cells; OCT1-dependent cytotoxicity); test: in vitro; settings: human
Method: as §3, §4, §2
as §3, with “Evaluation of all three classes” for “Evaluation”

[19] = system: OCT2 (human, expressed in the cells; OCT2-dependent cytotoxicity); test: in vitro; settings: human
Method: as §3, §4, §2
as §3, with “Evaluation of all three classes” for “Evaluation”

[20] = absence of cimetidine, read-out: IC50
[21] = cimetidine 3 mM, read-out: IC50 (in presence of cimetidine)
[22] = HT29, absence of cimetidine, read-out: IC50
[23] = HT29, cimetidine 3 mM, read-out: IC50 (in presence of cimetidine)
[24] = SW620, absence of cimetidine, read-out: IC50
[25] = SW620, cimetidine 3 mM, read-out: IC50 (in presence of cimetidine)
[26] = HCT116, absence of cimetidine, read-out: IC50
[27] = HCT116, cimetidine 3 mM, read-out: IC50 (in presence of cimetidine)
[28] = RK0, absence of cimetidine, read-out: IC50
[29] = RK0, cimetidine 3 mM, read-out: IC50 (in presence of cimetidine)

SMILES	IC50 [1] [µM]	IC50 [2] [µM]	IC50 [3] [µM]	IC50 [4] [µM]	Resistance Factor (HEK-hNET)	IC50 [5] [µM]	IC50 (HEK-hOCT3) [µM]	IC50 [6] [µM]	IC50 [7] [µM]	IC50 [8] [µM]	Initial Rate of reaction with glutathione [9] [Absorption unit/hr]	IC50 [10] [µM]	IC50 [11] [µM]	IC50 [12, 20] [µM]	IC50 [12, 21] [µM]	IC50 [13, 22] [µM]	IC50 [13, 23] [µM]	IC50 [15, 24] [µM]	IC50 [15, 25] [µM]	IC50 [16, 26] [µM]	also measured
N.N.[Cl][Pt][Cl] [Cisplatin]	19.9	12.4	3.77	9.63	1.8	2.62	4.84	18.6	24.5	6.16	0.1173										
[NH2][Pt]([NH2])([Cl])[N]1CCN(c2ccccc2)CC1 [SM71]												0.745 ± 0.003	1.26 ± 0.319								
[NH3+][Pt-2]([Cl])([Cl])[NH+]1CCN(c2ccccc2)CC1 [SM73]	13.1	9.72	3.58	13.6	5.5	12.3 ± 0.759		13.8	16.5	5.24	0.1132	0.036 ± 0.004	0.005 ± 0.001	48.9 ± 8.5	195	14.5 ± 8.54	109	33 ± 5.27	147	18.3 ± 2.28	Resistance Factor ([12]; ratio of IC50 in presence and absence of cimetidine): 3.98; Resistance Factor ([13]; HT29, ratio of IC50 in presence and absence of cimetidine): >7; ototoxicity [14]: No ototoxicity was observed; Resistance Factor ([15]; SW620, ratio of IC50 in presence and absence of cimetidine): 4.45; antitumor efficacy against neuroblastoma xenografts (neuroblastoma xenografts): retains the antitumor efficacy of cisplatin to a significant extent; IC50 [16, 27]: 71.2 µM; Resistance Factor ([16]; HCT116, ratio of IC50 in presence and absence of cimetidine): 3.88; IC50 [17, 28]: 19.6 ± 1.17 µM; IC50 [17, 29]: 75.8 µM; Resistance Factor ([17]; RK0, ratio of IC50 in presence and absence of cimetidine): 3.87; selectivity for accumulation into NET-expressing HEK cells (NET-expressing HEK cells): 3.25 fold; DNA-binding (DNA in HEK cells): increased DNA-binding
O=C1[O][Pt]2([NH][C@@H]3CCCC[C@H]3[NH]2)[O]C1=O [Oxaliplatin, reference compound]	20.4	29.4	15.5	19.9		1.62	1.32	18.8	24.8	15.9	0.0909			21.5 ± 5.3	151	13.2 ± 3.3	61.2	7.16 ± 3.59	40	6.14 ± 1.8	IC50 [16, 27]: 66.5 µM; IC50 [17, 28]: 2.9 ± 0.77 µM; IC50 [17, 29]: 41.7 µM
[NH2][Pt]([Cl])([Cl])[N]1CCN(c2ccc(F)cc2)CC1 [SM85]											0.1037										IC50 at 7 h [18]: 0.071 ± 0.014 µM; DNA-binding (DNA in HEK cells): increased DNA-binding; IC50 at 7 h [19]: 0.208 ± 0.035 µM
[NH2][Pt]([NH2])([Cl])[N]1CCN(c2ccccc2)CC1 [SM78]																					IC50 at 7 h ([18]; IC50 HEK-hOCT1, HEK293 stably transfected with human OCT1, MTT, 7 h exposure then 72 h): 0.988 ± 0.03 µM; IC50 at 7 h ([19]; IC50 HEK-hOCT2, HEK293 stably transfected with human OCT2, MTT, 7 h exposure then 72 h): 2.35 ± 0.313 µM
